The values below come from paper PMC9939323 (Acta Pharmaceutica Sinica. B, 2022).

In experiment [1] the target is neuraminidase (NA) of H1N1 (A/PR/8/34) (Influenza A virus (A/Puerto Rico/8/1934(H1N1)), UniProt P03468). As to the kind of experiment: NA-Fluor fluorescence assay, whole virus. The settings on record: read-out: % inhibition at 10 μmol/L. Type of experiment: biochemical.
For experiment [2] the target is unchanged. Description: NA-Fluor fluorescence assay, whole virus. Format: biochemical. The settings on record: NA-Fluor substrate, […] °C, […] min preincubation, […] h.

neuraminidase (NA) of H1N1 (A/PR/8/34) (Influenza A virus (A/Puerto Rico/8/1934(H1N1)), UniProt P03468), sequence (P03468 whole entry): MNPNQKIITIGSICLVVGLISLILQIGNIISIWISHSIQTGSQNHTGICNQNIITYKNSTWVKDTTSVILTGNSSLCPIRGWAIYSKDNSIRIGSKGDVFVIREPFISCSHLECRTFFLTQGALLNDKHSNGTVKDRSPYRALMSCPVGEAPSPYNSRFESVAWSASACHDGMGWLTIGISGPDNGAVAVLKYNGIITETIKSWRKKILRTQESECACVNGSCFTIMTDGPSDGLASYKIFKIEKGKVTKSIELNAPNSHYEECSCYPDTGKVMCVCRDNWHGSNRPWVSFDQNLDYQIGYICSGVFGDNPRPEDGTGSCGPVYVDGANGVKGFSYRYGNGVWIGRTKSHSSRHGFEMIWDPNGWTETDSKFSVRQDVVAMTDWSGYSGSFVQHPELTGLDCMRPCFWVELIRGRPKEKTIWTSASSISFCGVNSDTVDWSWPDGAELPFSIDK

For `Oc1ccc([C@H]2c3c(O)cc(O)cc3[C@H]3c4c(cc(O)cc4[C@@H]2c2cc(/C=C/c4cc(O)cc5c4[C@H](c4cc(O)cc(O)c4)[C@@H](c4ccc(O)cc4)O5)ccc2O)O[C@@H]3c2ccc(O)cc2)cc1` [vitisin A], the inhibition at 10 µM in experiment [1] amounted to 43%.

For `Oc1ccc(/C=C/c2cc(O)cc3c2[C@@H](c2cc(O)cc(O)c2)[C@H](c2ccc(O)cc2)O3)cc1` [ε-viniferin], in experiment [2], the “% inhibition at 10 μmol/L” value was “Ampelopsin A and ε-viniferin exhibited weak inhibitory effects”.
